From ChEMBL document CHEMBL1133622, “Probes for narcotic receptor-mediated phenomena. 27. Synthesis and pharmacological evaluation of selective delta-opioid receptor agonists from 4-[(alphaR)-alpha-(2S,5R)-4-substituted-2, 5-dimethyl-1-piperazinyl-3-methoxybenzyl]-N,N-diethylbenzamides and their enantiomers” (J Med Chem, 2000)

Assays:
[1] = molecular target: Delta-type opioid receptor (Rattus norvegicus, UniProt P33533); test: Inhibition of [3H]-DADLE binding to rat brain membrane Opioid receptor delta 1
[2] = molecular target: Delta-type opioid receptor (Rattus norvegicus) (UniProt P33533); test: Percent stimulation of [35S]GTP-gamma-S, binding at 10 uM; assay type: functional
[3] = molecular target: Delta-type opioid receptor (Rattus norvegicus) (UniProt P33533); test: Percent inhibition of SNC80 stimulated [35S]GTP-gamma-S, binding at 10 uM; assay type: functional
[4] = molecular target: Delta-type opioid receptor (Rattus norvegicus) (UniProt P33533); test: (§1) Percent inhibition of SNC80 stimulated [35S]GTP-gamma-S, binding by the compound (10 uM); assay type: functional
[5] = organism: Rattus norvegicus; test: as §1; assay type: functional
[6] = organism: Rattus norvegicus; test: Percent stimulation of [35S]GTP-gamma-S, binding by the compound (10 uM); assay type: functional

Chain of Delta-type opioid receptor (Rattus norvegicus) (P33533 whole entry): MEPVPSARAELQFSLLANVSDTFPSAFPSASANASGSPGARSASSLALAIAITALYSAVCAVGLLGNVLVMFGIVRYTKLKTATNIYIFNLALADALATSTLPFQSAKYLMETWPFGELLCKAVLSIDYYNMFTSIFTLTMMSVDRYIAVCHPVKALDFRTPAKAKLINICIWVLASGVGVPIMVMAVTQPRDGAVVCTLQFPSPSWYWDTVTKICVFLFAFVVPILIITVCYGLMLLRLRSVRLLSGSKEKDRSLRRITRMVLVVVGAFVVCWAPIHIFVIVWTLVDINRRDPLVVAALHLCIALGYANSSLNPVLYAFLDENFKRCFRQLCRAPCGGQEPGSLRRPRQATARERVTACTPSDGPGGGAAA
Chain of Delta-type opioid receptor (P33533 whole entry): as above

Row | Structure (SMILES) | Ki [1] [nM] | Stimulation [2] [%] | inhibition [3] [%] | inhibition [4] [%] | Inhibition [5] [%] | Stimulation [6] [%]
1 | C=C(C)CN1C[C@H](C)N([C@H](c2ccc(C(=O)N(CC)CC)cc2)c2cccc(OC)c2)C[C@H]1C | 4.8 | 119 | 2.3 |  |  | 
2 | CCN(CC)C(=O)c1ccc([C@H](c2cccc(OC)c2)N2C[C@@H](C)N(CC3CC3)C[C@@H]2C)cc1 | 3.5 | 48 |  | 18 |  | 
3 | CCN(CC)C(=O)c1ccc([C@H](c2cccc(OC)c2)N2C[C@@H](C)N(Cc3ccccc3)C[C@@H]2C)cc1 | 6.2 | 144 | 0 |  |  | 
4 | CCN(CC)C(=O)c1ccc([C@H](c2cccc(OC)c2)N2C[C@@H](C)N(C)C[C@@H]2C)cc1 | 4.5 | 25 | 18 |  |  | 
5 | CCCCN1C[C@H](C)N([C@H](c2ccc(C(=O)N(CC)CC)cc2)c2cccc(OC)c2)C[C@H]1C | 2.7 | 66 |  |  | 19 | 
6 | C=CCN1C[C@H](C)N([C@H](c2ccc(C(=O)N(CC)CC)cc2)c2cccc(OC)c2)C[C@H]1C [SNC-80] |  |  |  |  | 0 | 128
7 | CCN(CC)C(=O)c1ccc([C@H](c2cccc(OC)c2)N2C[C@@H](C)N(CC)C[C@@H]2C)cc1 | 5.2 | 45 |  | 13 |  | 
8 | CCCCCN1C[C@H](C)N([C@H](c2ccc(C(=O)N(CC)CC)cc2)c2cccc(OC)c2)C[C@H]1C | 4.7 | 26 |  | 28 |  | 
9 | CCN(CC)C(=O)c1ccc([C@H](c2cccc(OC)c2)N2C[C@@H](C)NC[C@@H]2C)cc1 | 4.7 | 63 | 11 |  |  | 
10 | CCN(CC)C(=O)c1ccc([C@H](c2cccc(OC)c2)N2C[C@@H](C)N(CCc3ccccc3)C[C@@H]2C)cc1 | 30.6 | 10 | 30 |  |  | 
11 | C/C=C/CN1C[C@H](C)N([C@H](c2ccc(C(=O)N(CC)CC)cc2)c2cccc(OC)c2)C[C@H]1C | 1.9 | 130 | 6.3 |  |  | 
12 | CCN(CC)C(=O)c1ccc([C@H](c2cccc(OC)c2)N2C[C@@H](C)N(CCCc3ccccc3)C[C@@H]2C)cc1 | 16.7 | 18 | 13 |  |  | 
13 | CCCCCCN1C[C@H](C)N([C@H](c2ccc(C(=O)N(CC)CC)cc2)c2cccc(OC)c2)C[C@H]1C | 10.4 | 21 | 34 |  |  | 
